The test system of experiment [1] is Phakopsora pachyrhizi. The experiment in a line: Use Example 14: activity against Asian soybean rust under semi field conditions. The format is in vivo. To be noted: Table 5, 100 g a.i./ha. On the procedure: Use Example 14. Activity Against Asian Soybean Rust (Phakopsora pachyrhizi) Under Semi Field Conditions
Soybeans were grown in an area covered with an insect proof net under natural temperature and light regime in Brazil. Seeds were sown in a tray, allowed to germinate and grow for 14-23 days, and afterwards transplanted to containers. Subsequently, the plants were grown for another 27-35 days before spray application.
The soybean plants were sprayed twice at a spray interval of 14 days. The spray solutions were prepared by mixing experimental formulations (100 g/l SC), in water, adding the adjuvant Mees™ (BASF, soybean oil methyl ester 824.3 g/L, EC) at 0.5 I/ha. The plants were sprayed in a mobile spray cabinet with a horizontal boom. The spray solutions were applied with 500 L/ha spray volume with a flat fan nozzle.
The plants were inoculated with natural population of Phakopsora pachyrhizi spore suspension one day after each spray application. Plants were incubated in a mobile chamber with a misting system at saturated humidity following each inoculation.
Soybean rust infestation was assessed as percent infected leaf area at 14 days after second application (B14). These percent values were converted in efficacies. The efficacy (E) was calculated as follows using Abbot's formula: […]

The test system of experiment [2] is Phakopsora pachyrhizi. Kind of experiment: Use Example 5: protective control of soybean rust on soybeans (PHAKPA P9). The experiment is classed as in vivo. To be noted: 16 ppm, 9 days before inoculation, F129L strain, up to 14 days, untreated 85. On the procedure:
(§1) The compound was dissolved in a mixture of acetone and/or dimethylsulfoxide and the wetting agent/emulsifier Wettol, which is based on ethoxylated alkylphenoles, in a ratio (volume) solvent-emulsifier of 99 to 1 to give a total volume of 5 ml. Subsequently, water was added to total volume of 100 ml. This stock solution was then diluted with the described solvent-emulsifier-water mixture to the final concentration given in the tables below.
Use Example 5. Protective Control of Soybean Rust on Soybeans Caused by Phakopsora pachyrhizi (PHAKPA P9)
Leaves of potted soybean seedlings were sprayed to run-off with the previously described spray solution, containing the concentration of active ingredient or their mixture as described below. The plants were allowed to air-dry. The trial plants were cultivated for 9 days in a greenhouse chamber at 23-27° C. and a relative humidity between 60 and 80%. Then the plants were inoculated with spores of Phakopsora pachyrhizi. The strain used contains the amino acid substitution F129L in the mitochondrial cytochrome b protein conferring resistance to Qo inhibitors. To ensure the success of the artificial inoculation, the plants were transferred to a humid chamber with a relative humidity of about 95% and 20 to 24° C. for 24 h. The trial plants were cultivated for up to 14 days in a greenhouse chamber at 23-27° C. and a relative humidity between 60 and 80%. The extent of fungal attack on the leaves was visually assessed as % diseased leaf area.

The test system of experiment [3] is Puccinia triticina. The experiment in a line: Use Example 15: activity against Puccinia triticina (PUCCRT, brown rust on wheat) in field. The experiment is classed as in vivo. To be noted: Table 10; for Efficacy, %: Abbot's formula, B23, untreated infection 50%; for infection rate, %: B23 (23 days after second treatment), flag leaf, untreated 50%. As for the experimental part: Use Example 15. Activity Against Puccinia triticina (PUCCRT, Brown Rust on Wheat) in Field
Trials were conducted under field conditions in Spain. Spring wheat was planted and grown with adequate supply of water and nutrients. Two applications (A and B) of the test compounds were made at onset of disease (application A) and at second application at an interval of 22 days (application B). The spray solutions were prepared by mixing experimental formulations of the test compounds (50 g/L EC) in water, adding 124 g/ha Plurafac LF301 and Plurafac LF1312 (BASF, low-foaming non-ionic surfactants consisting of alkoxylated, predominantly unbranched fatty alcohols containing higher alkene oxides alongside ethylene oxide), respectively. The spray solutions were applied with 300 I/ha spray volume with a flat fan nozzle.
The infestation levels for brown rust (Puccinia triticina) were evaluated 23 days after the second fungicide treatment (B23), a mean value across the flag leaf level was calculated. In addition, efficacy was calculated using Abbot's formula as in use example 14.

In experiment [4] the test system is Puccinia triticina. The experiment in a line: Use Example 6: preventative control of brown rust on wheat (PUCCRT P7). The format is in vivo, Puccinia triticina (syn. P. recondita). The note with it: 16 ppm, seven days before inoculation, 9 to 12 days, untreated 85. On the procedure: as §1
Use Example 6. Preventative Control of Brown Rust on Wheat Caused by Puccinia triticina (Syn. P. recondita) (PUCCRT P7)
The first two developed leaves of potted wheat seedling were sprayed to run-off with previously described spray solution, containing the concentration of active ingredient or their mixture as described below. Seven days later the plants were dusted with spores of Puccinia triticina. To ensure the success of the artificial inoculation, the plants were transferred to a humid chamber without light and a relative humidity of 95 to 99% and 20 to 24° C. for 24 h. Then the trial plants were cultivated for 9 to 12 days in a greenhouse chamber at 20 to 24° C. and a relative humidity between 65 and 70%. The extent of fungal attack on the leaves was visually assessed as % diseased leaf area.

Another experiment deals with Pyrenophora teres. The experiment in a line: Use Example 11: control of net blotch on barley (PYRNTE P1). To be noted: F129L strain, inoculated the next day, 16 ppm, untreated 75%. The format is in vivo, Pyrenophora (syn. Drechslera) teres. On the procedure:
as §1
Use Example 11. Control of Net Blotch on Barley Caused by Pyrenophora teres (PYRNTE P1)
The first fully developed leaves of potted barley plants were sprayed to run-off previously described spray solution, containing the concentration of active ingredient or their mixture mentioned in the table below. The next day the treated plants were inoculated with an aqueous spore suspension Pyrenophora (syn. Drechslera) teres. The strain used contains the amino acid substitution F129L in the mitochondrial cytochrome b protein conferring resistance to Qo inhibitors. Then the trial plants were cultivated for up to 19 days at 20-24° C. and a relative humidity close to 70%, the extent of fungal attack on the leaves was visually assessed as % diseased leaf area.

Another experiment has as its system Puccinia striiformis. Kind of experiment: Use Example 10: preventative control of wheat stripe rust on wheat (PUCCST P7). The experiment is classed as in vivo. The note with it: 16 ppm, untreated 90%. As for the experimental part:
as §1
Use Example 10. Preventative Control of Wheat Stripe Rust on Wheat Caused by Puccinia striiformis (PUCCST P7)
The first two developed leaves of potted wheat seedling were sprayed to run-off with previously described spray solution, containing the concentration of active ingredient or their mixture as described below. Seven days later the plants were inoculated with spores of Puccinia striiformis. To ensure the success of the artificial inoculation, the plants were transferred to a chamber without light and a temperature of 5° C. for 24 h. Then the trial plants were cultivated for up to 14 days in a greenhouse chamber at 16° C. and a relative humidity of minimum 75%. The extent of fungal attack on the leaves was visually assessed as % diseased leaf area.

SMILES strings stand for the structures.

For the compound `CO/C=C(/C(=O)OC)c1cccc(C)c1CO/N=C(\COC)c1ccc(Cl)cc1Cl` [Compound 6, methyl (E)-2-[2-[[(Z)-[1-(2,4-dichlorophenyl)-2-methoxy-ethylidene]amino]oxymethyl]-3-methyl-phenyl]-3-methoxy-prop-2-enoate], the “Efficacy, %” value is 56% in the experiment on Phakopsora pachyrhizi [1] (Abbot's formula, B14, untreated infection 71%); 40% in the experiment with Puccinia triticina [3] (75 g a.i./ha); 50% in the experiment with Puccinia triticina [3] (150 g a.i./ha). In addition, the “infection rate, %” value was determined as 31% in the experiment on Phakopsora pachyrhizi [1] (B14 (14 days after second application), untreated 71%); 30% with Puccinia triticina [3] (75 g a.i./ha); 25% in the experiment with Puccinia triticina [3] (150 g a.i./ha). Further, the “Diseased leaf area (%)” value in the experiment with Phakopsora pachyrhizi [2] turned out to be 9%; with Puccinia triticina [4], 11%; in the experiment with Pyrenophora teres, 7%; with Puccinia striiformis, 0%.
